Experimental data published in the supplement of paper PMC11208160.

test: recombinant barcode read abundance after kanamycin selection (control-corrected) (log10(CPM+1)); higher = more efficient recombination; sequences stand for … in AGTGCAGAGAAAATCGGCCAGTTTTCTCTGCCTGCAGTCCGCATGCCGT…AGATTTATGCAGCGGACTGCCTTTCTCCCAAAGTGATAAACCGGACAGTATCATGGACCGGTTTTCCCGGTAATCCGTATTTGCAAGGTTGGTTTCACT; site = the 11-nt target
Method: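 Pooled E. coli target-specificity screen for the IS621 bridge recombinase. Each library plasmid pairs an 11-nt target (CT core) with a bridge RNA whose target-binding loop (9-nt LTG + 4-nt RTG) is reprogrammed; the rest of the 177-nt WT IS621 bridge RNA scaffold is fixed. The plasmid is co-electroporated with a WT donor plasmid; recombinase is induced with 0.1 mM IPTG and recombinants are selected on kanamycin. Recombinant barcodes are sequenced, converted to CPM, averaged over two biological replicates and corrected by the unselected control CPM. Molecule = full bridge RNA written as DNA: LTG = specificity nt 1-9, RTG = reverse complement of specificity nt 8-11, in the WT scaffold.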
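Also: IS621 recombinase and bridge RNA in Escherichia coli cells.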

Row | Sequence | recombinant barcode read abundance (log10)
1 | ACAGTCGCTTGGGTTCTAACCTGTTGCCT (site ACAGGCGCTAG) | 0
2 | ACAGTCGCTTGGGTTCTAACCTGTTGCCT (site ACAGTCGCTAG) | 1.4
3 | ACATAAGCTTGGGTTCTAACCTGTTGCCT (site ACATAAGCTAG) | 1.1
4 | ACATAAGCTTGGGTTCTAACCTGTTGCCT (site CATCGGACTCT) | 0.116
5 | ACATATACTTGGGTTCTAACCTGTTGCTT (site ACATATACTAA) | 0.0772
6 | ACATATACTTGGGTTCTAACCTGTTGCTT (site CGTAGCCCTCC) | 0.125
7 | ACATGAACTTGGGTTCTAACCTGTTGCAT (site ACATGAACTAT) | 1.38
8 | ACATGAACTTGGGTTCTAACCTGTTGCAT (site ACATGCACTAT) | 0.111
9 | ACATGAACTTGGGTTCTAACCTGTTGCAT (site ACATGGACTAT) | 0.141
10 | ACATGAACTTGGGTTCTAACCTGTTGCAT (site ACATGTACTAT) | 0.0493
11 | ACATGACCTTGGGTTCTAACCTGTTGCTT (site ACATGACCTAA) | 0.223
12 | ACATGACCTTGGGTTCTAACCTGTTGCTT (site ATATGAGCTAA) | 0.0302
13 | ACATGGGCTTGGGTTCTAACCTGTTGCCG (site ACATGGGCTCG) | 0.695
14 | ACATGGGCTTGGGTTCTAACCTGTTGCCG (site ACATGTGCTCT) | 0.266
15 | ACATGTCCTTGGGTTCTAACCTGTTGCGT (site ACATGTCCTAA) | 0.141
16 | ACATGTCCTTGGGTTCTAACCTGTTGCGT (site ACATGTCCTAC) | 2.39
17 | ACATGTCCTTGGGTTCTAACCTGTTGCGT (site ACATGTCCTAG) | 0.23
18 | ACATGTCCTTGGGTTCTAACCTGTTGCGT (site ACATGTCCTAT) | 1.48
19 | ACATGTGCTTGGGTTCTAACCTGTTGCAG (site ACATGGGCTCG) | 0.0637
20 | ACATGTGCTTGGGTTCTAACCTGTTGCAG (site ACATGTGCTCT) | 1.72
21 | ACATTAGCTTGGGTTCTAACCTGTTGCAA (site ACATTAGCTTT) | 0.609

Row | Sequence | recombinant barcode read abundance (log10)
22 | ACATTAGCTTGGGTTCTAACCTGTTGCAA (site ACTTTAGCTCT) | 0.0541
23 | ACCAAATCTTGGGTTCTAACCTGTTGCTA (site ACCAAATCTCG) | 0.356
24 | ACCAAATCTTGGGTTCTAACCTGTTGCTA (site ACCAAATCTTA) | 0.23
25 | ACCAAGTCTTGGGTTCTAACCTGTTGCGT (site ACCAAGTCTAC) | 1.98
26 | ACCAAGTCTTGGGTTCTAACCTGTTGCGT (site ACCAAGTCTGC) | 0.326
27 | ACCAATACTTGGGTTCTAACCTGTTGCCT (site ACCAATACTAG) | 0.0309
28 | ACCAATACTTGGGTTCTAACCTGTTGCCT (site ACCAATCCTAG) | 0.122
29 | ACCAATACTTGGGTTCTAACCTGTTGCCT (site ACCAATGCTAG) | 0.939
30 | ACCAATACTTGGGTTCTAACCTGTTGCCT (site ACCAATTCTAG) | 0.0138
31 | ACCAATGCTTGGGTTCTAACCTGTTGCCT (site ACCAATACTAG) | 0.182
32 | ACCAATGCTTGGGTTCTAACCTGTTGCCT (site ACCAATCCTAG) | 0.136
33 | ACCAATGCTTGGGTTCTAACCTGTTGCCT (site ACCAATGCTAG) | 0.0431
34 | ACCAATGCTTGGGTTCTAACCTGTTGCCT (site ACCAATTCTAG) | 0.163
35 | ACCAATTCTTGGGTTCTAACCTGTTGCCT (site ACCAATACTAG) | 0.059
36 | ACCAATTCTTGGGTTCTAACCTGTTGCCT (site ACCAATCCTAG) | 0.111
37 | ACCAATTCTTGGGTTCTAACCTGTTGCCT (site ACCAATGCTAG) | 0.0727
38 | ACCAATTCTTGGGTTCTAACCTGTTGCCT (site ACCAATTCTAG) | 0.483
39 | ACCCAACCTTGGGTTCTAACCTGTTGCCT (site ACCCAAACTAG) | 0.242
40 | ACCCAACCTTGGGTTCTAACCTGTTGCCT (site ACCCAACCTAG) | 1.58
41 | ACCCAACCTTGGGTTCTAACCTGTTGCCT (site ACCCAAGCTAG) | 0.104
42 | ACCCAACCTTGGGTTCTAACCTGTTGCCT (site ACCCAATCTAG) | 0.0366

Row | Sequence | recombinant barcode read abundance (log10)
43 | ACCCAATCTTGGGTTCTAACCTGTTGCCT (site ACCCAAACTAG) | 0.266
44 | ACCCAATCTTGGGTTCTAACCTGTTGCCT (site ACCCAACCTAG) | 0.0978
45 | ACCCAATCTTGGGTTCTAACCTGTTGCCT (site ACCCAAGCTAG) | 0.207
46 | ACCCAATCTTGGGTTCTAACCTGTTGCCT (site ACCCAATCTAG) | 1.47
47 | ACCCACACTTGGGTTCTAACCTGTTGCCG (site ACCCACACTCG) | 1.8
48 | ACCCACACTTGGGTTCTAACCTGTTGCCG (site TCCCACACTTG) | 0.111
49 | ACCGAGACTTGGGTTCTAACCTGTTGCGG (site ACCGAGACTCC) | 2.7
50 | ACCGAGACTTGGGTTCTAACCTGTTGCGG (site AGTGAGACTCC) | 0.0628
51 | ACCGAGTCTTGGGTTCTAACCTGTTGCCT (site AACGAGTCTAG) | 0.202
52 | ACCGAGTCTTGGGTTCTAACCTGTTGCCT (site ACCGAGTCTAG) | 1.85
53 | ACCGAGTCTTGGGTTCTAACCTGTTGCCT (site AGCGAGTCTAG) | 0.164
54 | ACCGAGTCTTGGGTTCTAACCTGTTGCCT (site ATCGAGTCTAG) | 0.387
55 | ACCGCTACTTGGGTTCTAACCTGTTGCCT (site ACCGCTACTAG) | 0.176
56 | ACCGCTACTTGGGTTCTAACCTGTTGCCT (site AGCGCTACTAG) | 0.0813
57 | ACCGGGACTTGGGTTCTAACCTGTTGCCT (site ACCGAGACTAG) | 0.285
58 | ACCGGGACTTGGGTTCTAACCTGTTGCCT (site ACCGCGACTAG) | 0.159
59 | ACCGGGACTTGGGTTCTAACCTGTTGCCT (site ACCGGGACTAG) | 1.14
60 | ACCGGGACTTGGGTTCTAACCTGTTGCCT (site ACCGTGACTAG) | 0
61 | ACCGGTACTTGGGTTCTAACCTGTTGCCT (site ACCAGTACTAG) | 0.408
62 | ACCGGTACTTGGGTTCTAACCTGTTGCCT (site ACCCGTACTAG) | 0.014
63 | ACCGGTACTTGGGTTCTAACCTGTTGCCT (site ACCGGTACTAG) | 0.508

Row | Sequence | recombinant barcode read abundance (log10)
64 | ACCGGTACTTGGGTTCTAACCTGTTGCCT (site ACCTGTACTAG) | 0.0135
65 | ACCTAACCTTGGGTTCTAACCTGTTGCAG (site ACCTAACCTCT) | 1.22
66 | ACCTAACCTTGGGTTCTAACCTGTTGCAG (site TCCTAACCTCA) | 0.0355
67 | ACCTGTCCTTGGGTTCTAACCTGTTGCCT (site ACCTGACCTAG) | 0.269
68 | ACCTGTCCTTGGGTTCTAACCTGTTGCCT (site ACCTGCCCTAG) | 0.0321
69 | ACCTGTCCTTGGGTTCTAACCTGTTGCCT (site ACCTGGCCTAG) | 0.173
70 | ACCTGTCCTTGGGTTCTAACCTGTTGCCT (site ACCTGTCCTAG) | 0.986
71 | ACCTTAACTTGGGTTCTAACCTGTTGCCT (site ACCTTAACTAG) | 0.166
72 | ACCTTAACTTGGGTTCTAACCTGTTGCCT (site ATCTCAACTAG) | 0
73 | ACCTTGCCTTGGGTTCTAACCTGTTGCTA (site ACCTTGCCTTA) | 0.478
74 | ACCTTGCCTTGGGTTCTAACCTGTTGCTA (site TGGAGAGCTCT) | 0.0461
75 | ACGAACGCTTGGGTTCTAACCTGTTGCCT (site ACGAACGCTAG) | 1.64
76 | ACGAACGCTTGGGTTCTAACCTGTTGCCT (site ACGACCGCTAG) | 0.344
77 | ACGAACGCTTGGGTTCTAACCTGTTGCCT (site ACGAGCGCTAG) | 0.085
78 | ACGAACGCTTGGGTTCTAACCTGTTGCCT (site ACGATCGCTAG) | 0.14
79 | ACGAAGCCTTGGGTTCTAACCTGTTGCCT (site ACGAAGCCTAG) | 1.35
80 | ACGAAGCCTTGGGTTCTAACCTGTTGCCT (site GCGACGCCTAG) | 0.19
81 | ACGACTCCTTGGGTTCTAACCTGTTGCCT (site ACGACTACTAG) | 0.467
82 | ACGACTCCTTGGGTTCTAACCTGTTGCCT (site ACGACTCCTAG) | 0.618
